The term EC50 denotes the concentration at which the effect is half-maximal. Lower therefore signals greater potency.

The experiment relates to glycogen synthase. The experiment can be described thus: Glycogen Synthase (GS) Assay. The class given is biochemical. Conditions: for EC50: compound concentration needed to give 50% maximum activation; for GS SC200: compound concentration needed to stimulate 200% of the enzyme activity. As for the experimental part:
The following tests were carried out in order to determine the activity of the compounds of formula (I).
Twelve μL per well of substrate solution containing glycogen (4.32 mg/′ml), 2.67 mM UDP-glucose, 21.6 mM phospho(enol)pyruvate and 2.7 mM NADH in 30 mM glycylglycine, pH 7.3 buffer was added into a polystyrene 384-well assay plate (BD Biosciences).
Compound solutions (8 μL/well) at various concentrations (0-300 μM) were added to the assay plate (columns 5-24). Compound solution contains 30 mM glycylglycine, pH 7.3, 40 mM KCl, 20 mM MgCl2, 9.2% DMSO, with (columns 15-24) or without (columns 5-14) 20 mM glucose 6-phosphate.
Enzyme solution (12 μL/well) containing glycogen synthase (16.88 μg/ml), pyruvate kinase (0.27 mg/ml), lactate dehydrogenase (0.27 mg/ml) in 50 mM Tris-HCl, pH 8.0, 27 mM DTT and bovine serum albumin (BSA, 0.2 mg/ml) was added to the assay plate (columns 3-24). As a blank control, enzyme solution without glycogen synthase was added into the top half wells of columns 1-2. To the bottom half wells of columns 1-2 were added a known activator, glucose 6-phosphate (at final concentration 5 mM) in addition to the enzyme solution. The reaction mixture was incubated at room temperature. The assay plate was then read for absorbance at 340 nm on an Envision reader every 3 minutes up to a total of 15 minutes.
The enzyme activity (with or without compound) was calculated by the reaction rate and represented by the optical density change (δOD) per minute. Percent stimulation of glycogen synthase activity by a compound at various concentrations was calculated by the following formula: % stimulation=100*Rs/Rt,
wherein Rs is the reaction rate of the enzyme in the presence of compound and Rt is the reaction rate of the enzyme in the absence of compound.
SC200 is defined as the compound concentration that is needed to stimulate 200% of the enzyme activity. EC50 is defined as the compound concentration that is needed to give 50% maximum activation.

For the molecule `COc1cc(F)c(F)cc1-c1ccc(OCc2cccc3[nH]ncc23)cc1` [Example 1, 4-(4′,5′-Difluoro-2′-methoxy-biphenyl-4-yloxymethyl)-1H-indazole], the EC50 is 6.56 µM and the “GS SC200” value turned out to be 4.57 µM.

Turning to `COc1cc(F)c(F)cc1-c1ccc(OCc2cccc3c2cnn3CCC(=O)O)cc1` [Example 2, 3-[4-(4′,5′-Difluoro-2′-methoxy-biphenyl-4-yloxymethyl)-indazol-1-yl]-propionic acid], the midpoint of the response, the EC50, lay at 26 µM and the “GS SC200” value is 5.52 µM.

`COc1cc(F)c(F)cc1-c1ccc(OCc2ccc3cn[nH]c3c2)cc1` [Example 3, 6-(4′,5′-Difluoro-2′-methoxy-biphenyl-4-yloxymethyl)-1H-indazole]: the EC50 came to 6 µM and the “GS SC200” value came to 3.92 µM.

For `COc1cc(F)c(F)cc1-c1ccc(OCc2ccc3cnn(CC(=O)O)c3c2)cc1` [Example 4, [6-(4′,5′-Difluoro-2′-methoxy-biphenyl-4-yloxymethyl)-indazol-1-yl]-acetic acid], the EC50 was 7 µM and the “GS SC200” value stood at 2.56 µM.

With `COc1cc(F)c(F)cc1-c1ccc(OCc2ccc3cnn(CCC(=O)O)c3c2)cc1` [Example 5, 3-[6-(4′,5′-Difluoro-2′-methoxy-biphenyl-4-yloxymethyl)-indazol-1-yl]-propionic acid], a half-maximal effect (EC50) was put at 1.43 µM and the “GS SC200” value turned out to be 0.28 µM.

Take `COc1cc(F)c(F)cc1-c1ccc(OCc2ccc3cc[nH]c3c2)cc1` [Example 6, 6-(4′,5′-difluoro-2′-methoxy-biphenyl-4-yloxymethyl)-1H-indole]: the EC50 was found to be 5.37 µM and the “GS SC200” value turned out to be 5.3 µM.

In the case of `COc1cc(F)c(F)cc1-c1ccc(OCc2ccc3ccn(CCC(=O)O)c3c2)cc1` [Example 7, 3-[6-(4′,5′-Difluoro-2′-methoxy-biphenyl-4-yloxymethyl)-indol-1-yl]-propionic Acid], the EC50 is 3 µM and the “GS SC200” value was found to be 0.6 µM.

In the case of `COc1cc(F)c(F)cc1-c1ccc(OCc2ccc3ccn(CC(=O)O)c3c2)cc1` [Example 8, [6-(4′,5′-Difluoro-2′-methoxy-biphenyl-4-yloxymethyl)-indol-1-yl]-Acetic Acid], the response was half-maximal at 5.16 µM (EC50) and the “GS SC200” value is 2 µM.

With `COc1cc(F)c(F)cc1-c1ccc(OCc2ccc3ccn(C(C)CC(=O)O)c3c2)cc1` (stereo not shown) [Example 9, 3-[6-(4′,5′-Difluoro-2′-methoxy-biphenyl-4-yloxymethyl)-indol-1-yl]-butyric Acid], the EC50 turned out to be 2.01 µM and the “GS SC200” value is 0.41 µM.

Take `COc1cc(F)c(F)cc1-c1ccc(OCc2cccc3[nH]ccc23)cc1` [Example 10, 4-(4′,5′-Difluoro-2′-methoxy-biphenyl-4-yloxymethyl)-1H-indole]: the EC50 stood at 3.88 µM and the “GS SC200” value is 2.86 µM.

For `COc1cc(F)c(F)cc1-c1ccc(OCc2cccc3c2ccn3C(=O)CCC(=O)O)cc1` [Example 11, 4-[4-(4′,5′-Difluoro-2′-methoxy-biphenyl-4-yloxymethyl)-indol-1-yl]-4-oxo-butyric acid], the EC50 was 2.46 µM and the “GS SC200” value came out at 0.44 µM.

Take `COc1cc(F)c(F)cc1-c1ccc(OCc2cccc3c2ccn3C(=O)CC(C)(C)C(=O)O)cc1` [Example 12, 4-[4-(4′,5′-Difluoro-2′-methoxy-biphenyl-4-yloxymethyl)-indol-1-yl]-2,2-dimethyl-4-oxo-butyric acid]: the EC50 turned out to be 3.04 µM and the “GS SC200” value was 1.19 µM.

`COc1cc(F)c(F)cc1-c1ccc(OCc2cccc3c2ccn3CC(=O)O)cc1` [Example 13, [4-(4′,5′-Difluoro-2′-methoxy-biphenyl-4-yloxymethyl)-indol-1-yl]-acetic acid]: the EC50 was found to be 3.12 µM and the “GS SC200” value turned out to be 0.43 µM.

Regarding `COc1cc(F)c(F)cc1-c1ccc(OCc2cccc3c2ccn3CCC(=O)O)cc1` [Example 14, 3-[4-(4′,5′-Difluoro-2′-methoxy-biphenyl-4-yloxymethyl)-indol-1-yl]-propionic acid], a half-maximal effect (EC50) was put at 5.49 µM and the “GS SC200” value came out at 1.46 µM.

Consider `COc1cc(F)c(F)cc1-c1ccc(OCc2cccc3c2ccn3C(C)CC(=O)O)cc1` (stereo not shown) [Example 15, 3-[4-(4′,5′-Difluoro-2′-methoxy-biphenyl-4-yloxymethyl)-indol-1-yl]-butyric acid], for which the EC50 was 6.67 µM and the “GS SC200” value came out at 2.29 µM.

As for `COc1cc(F)c(F)cc1-c1ccc(OCc2ccc3[nH]nc(N)c3c2)cc1` [Example 16, 5-(4′,5′-Difluoro-2′-methoxy-biphenyl-4-yloxymethyl)-1H-indazol-3-ylamine], the EC50 came out at 2.79 µM and the “GS SC200” value turned out to be 0.6 µM.

Consider `Cn1nc(N)c2cc(COc3ccc(-c4cc(F)c(F)cc4F)cc3)ccc21` [Example 17, Methyl-5-(2′,4′,5′-trifluoro-biphenyl-4-yloxymethyl)-1H-indazol-3-ylamine], for which the midpoint of the response, the EC50, lay at 18.5 µM and the “GS SC200” value came to 3.9 µM.

The values are drawn from US7947728B1, “Indole and indazole analogs as glycogen synthase activators” (Hoffmann-La Roche Inc., priority 2009, dated 2011).
